According to patent US20220031684A1, “PROPHYLACTIC EFFICACY OF SEROTONIN 4 RECEPTOR AGONISTS AGAINST STRESS” (THE TRUSTEES OF COLUMBIA UNIVERSITY IN THE CITY OF NEW YORK, priority 2019, published 2022):

How the values were obtained:
[1] = system: CA3 pyramidal cells; experiment: Whole-cell voltage clamp recordings of spontaneous EPSCs in CA3 slices; assay type: cell-based, mice; conditions: NBQX 20 μM added to bath
Protocol: (§1) This chronic CORT elevation dysregulates the hypothalamic-pituitary-adrenal axis (HPA) in a manner similar to that observed in clinical depression. The dose and duration of CORT treatment was selected based on previous studies. CORT (35 μg/ml, equivalent to about 5 mg/kg/day) dissolved in 0.45% hydroxypropyl-o-cyclodextrin (0-CD) or vehicle (VEH) (0.45% j-CD) was available ad libitum in the drinking water in opaque bottles to protect it from light. VEH- and CORT-treated water was changed every 3 days to prevent possible degradation. Contextual Fear Conditioning (CFC): A 3-shock CFC procedure was administered as previously published. Briefly, mice were placed into context A and administered 3 2-s shocks (0.75 mA) at 180 s, 240 s or 300 s following placement into context A. Mice were removed from the context 15 s following the termination of shock (at 317 s). For context retrieval, mice were placed back into context A for 300 s. Electrophysiology: Electrophysiology was conducted as previously described. Statistical Analysis: Results from data analyses are expressed as means±SEM. Alpha was set to 0.05 for all analyses. Data were analyzed using GraphPad Prism v7.0 or v8.0. For all experiments, unless otherwise noted, one- or two-way ANOVAs with repeated-measures were applied to the data as appropriate. Significant main effects and/or interactions were followed by Fisher's PLSD post hoc analysis or unpaired t-tests. Drugs: All drugs were prepared in physiological saline and all injections were administered intraperitoneally (i.p.) in volumes of 0.1 cc per […] body weight unless otherwise noted. Fluoxetine hydrochloride (Flx): Flx (BioTrend Chemicals AG, BG197, Zurich, Germany) was administered in the drinking water (18 mg/kg/day) for 3 weeks before the start of CORT. […] (R,S)-ketamine (K): (R,S)-ketamine (Ketaset III, Ketamine HCl injection, Fort Dodge Animal Health, Fort Dodge, Iowa) was administered in a single dose at 30 mg/kg of body weight 1 week before the start of CFC. […] PF-04995274: PF-04995274 (Sigma, Catalog No. 1331782-27-4, St. Louis, Mo.) was administered a single dose at 3 or 10 mg/kg of body weight 1 week before the start of CFC. PF-04995274 was dissolved in saline using an ultrasonic homogenizer (BioLogics, Model 3000, Manassas, Va.). Osmotic minipump implantation: ALZET osmotic minipumps (Model 2004, […], 28 days) were implanted subcutaneously under isoflurane anesthesia as previously described [S2]. Osmotic minipumps were rotated under the skin two to three times per week. Behavioral Assays: All experiments were approved by the Institutional Animal Care and Use Committee (IACUC) at the New York Psychiatric Institute (NYSPI). Elevated Plus Maze (EPM): Testing was performed as previously described [S3]. Briefly, the maze is a plus-cross-shaped apparatus consisting of four arms, two open and two enclosed by walls, linked by a central platform at a height of 50 cm from the floor. Mice were individually placed in the center of the maze facing an open arm and were allowed to explore the maze for 5 min. The time spent in and the number of entries into the open arms was used as an anxiety index. Videos were scored using ANY-maze behavior tracking software (Stoelting, Wood Dale, Ill.). Novelty-Suppressed Feeding: The NSF is a conflict test that elicits competing motivations: the drive to eat and the fear of venturing into the center of a brightly lit arena. The latency to feed is used as an index of anxiety-like behavior, because classical anxiolytic drugs decrease this measure. The NSF test was carried out during an 8 min period as previously described [S3]. Briefly, the testing apparatus consisted of a plastic box (50×50×20 cm), the floor of which was covered with approximately 2 cm of bedding. For 129S6/SvEv experiments, mice were food restricted for 12 h. For the C57BL/6N experiments, mice were food restricted for 24 h. […]

[2] = system: 129S6/SvEv mice; experiment: Forced swim test (FST) after CFC; assay type: in vivo
Protocol: as §1

[3] = system: 129S6/SvEv mice; experiment: 3-shock contextual fear conditioning (CFC); assay type: in vivo
Protocol: as §1

[4] = FIG. 4 cohort, Male, FIG. 4F, RMANOVA, Fisher's LSD
[5] = FIG. 4 cohort, Male, FIG. 4G, ANOVA, Fisher's LSD
[6] = FIG. 4 cohort, Male, FIG. 4C, RMANOVA, Fisher's LSD
[7] = FIG. 4 cohort, Male, FIG. 4D, ANOVA, Fisher's LSD

| Structure (SMILES) | large bursts of EPSCs in saline-treated mice [1] | p, FST Day 2 Immobility Time (sec), PF04995274 (3 mg/kg) vs. PF04995274 (10 mg/kg) [2, 4] | p, FST Day 2 Immobility Time (sec), Saline vs. PF04995274 (3 mg/kg) [2, 4] | p, FST Day 2 Immobility Time (sec), Saline vs. PF04995274 (10 mg/kg) [2, 4] | p, FST Day 2 Immobility Time (min 3-6) (sec), Saline vs. PF04995274 (3 mg/kg) [2, 5] | p, FST Day 2 Immobility Time (min 3-6) (sec), Saline vs. PF04995274 (10 mg/kg) [2, 5] | immobility, FST day 1 ([2]; male 129S6/SvEv, (R,S)-ketamine 30, prucalopride 3 or 10, PF-04995274 3 or 10 mg/kg) | immobility time, FST day 2 vs saline ([2]; male 129S6/SvEv, single injection 1 week before CFC, 10 mg/kg) | p, CFC Re-exposure Freezing (%), PF04995274 (3 mg/kg) vs. PF04995274 (10 mg/kg) [3, 6] | p, CFC Re-exposure Freezing (%), Saline vs. PF04995274 (3 mg/kg) [3, 6] | p, CFC Re-exposure Freezing (%), Saline vs. PF04995274 (10 mg/kg) [3, 6] | p, CFC Re-exposure, PF04995274 (3 mg/kg) vs. PF04995274 (10 mg/kg) [3, 7] | p, CFC Re-exposure, Saline vs. PF04995274 (3 mg/kg) [3, 7] | p, CFC Re-exposure, Saline vs. PF04995274 (10 mg/kg) [3, 7] | freezing during CFC training ([3]; male 129S6/SvEv, (R,S)-ketamine 30, prucalopride 3 or 10, PF-04995274 3 or 10 mg/kg, 1 week before CFC, vs saline) | freezing at re-exposure to the training context (learned fear) vs saline ([3]; male 129S6/SvEv, single i.p. injection 1 week before CFC, re-exposure 5 days later, 10 mg/kg) |
| --- | --- | --- | --- | --- | --- | --- | --- | --- | --- | --- | --- | --- | --- | --- | --- | --- |
| NS(=O)(=O)c1cccc2c1c([N+](=O)[O-])cc1nc(O)c(O)nc12 [NBQX, 2,3-dihydroxy-6-nitro-7-sulfamoyl-benzo[f]quinoxaline] | completely blocked | – | – | – | – | – | – | – | – | – | – | – | – | – | – | – |
| OC1(CN2CCC(COc3noc4cccc(OC5CCOC5)c34)CC2)CCOCC1 (stereo not shown) [PF-04995274] | – | 0.0941 | 0.1259 | 0.0023 | 0.1050 | 0.0027 | comparable levels of immobility | decreased immobility time | 0.0619 | 0.6871 | 0.0255 | 0.0619 | 0.6871 | 0.0255 | comparable levels of freezing | attenuated learned fear |
